Data taken from ChEMBL document CHEMBL1201862, “PubChem BioAssay data set” (2004).
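All cell lines were grown in 96-well plates and treated with compound for 48 hours. At the GI50, growth is halved.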 Calls of active or inactive are those of the source. No stated cut-off is given here; in the data, active = GI50 up to about 1.1 µM and inactive = higher. Where a SMILES comes first, the peptide text is derived from it. The star is where a group is joined. Boc = CC(C)(C)OC(=O)*

Key:
Experiment in all cases: NCI anticancer screen, dose series, 48 h
OVCAR-4 = system: OVCAR-4
NCI-H460 = system: NCI-H460
M14 = system: M14
SNB-75 = system: SNB-75
IGROV-1 = system: IGROV-1
OVCAR-5 = system: OVCAR-5
NCI-H522 = system: NCI-H522
TK-10 = system: TK-10
HCC 2998 = system: HCC 2998
K562 = system: K562
HT-29 = system: HT-29
SW-620 = system: SW-620
SK-OV-3 = system: SK-OV-3
OVCAR-3 = system: OVCAR-3
MOLT-4 = system: MOLT-4
CAKI-1 = system: CAKI-1
SK-MEL-5 = system: SK-MEL-5
LOX IMVI = system: LOX IMVI
SN12C = system: SN12C

Measured: GI50

N#C/N=[N+](\[O-])c1ccc(C(=O)O)cc1
inactive: OVCAR-4 21 µM | NCI-H460 28.7 µM | M14 18.2 µM | SNB-75 23.1 µM | IGROV-1 43.5 µM | OVCAR-5 20 µM | NCI-H522 19.5 µM | TK-10 17.5 µM | HCC 2998 25.5 µM | K562 15.4 µM | HT-29 20.3 µM | SW-620 19.9 µM | SK-OV-3 18.6 µM | OVCAR-3 15.2 µM

COP(C)(=O)/C(Cc1ccccc1)=N\O (stereo unspecified)
inactive: OVCAR-4 > 100 µM | NCI-H460 > 100 µM | M14 > 100 µM | MOLT-4 > 100 µM | SNB-75 > 100 µM | IGROV-1 > 100 µM | CAKI-1 > 100 µM | OVCAR-5 > 100 µM | TK-10 > 100 µM | SK-MEL-5 > 100 µM | HCC 2998 > 100 µM | K562 > 100 µM | HT-29 > 100 µM | SW-620 > 100 µM | SK-OV-3 > 100 µM | OVCAR-3 > 100 µM | LOX IMVI > 100 µM | SN12C > 100 µM

COc1ccc2c(c1)OCCC1=C2SCC2(C)CCN=C12 (stereo unspecified)
inactive: OVCAR-4 > 100 µM | NCI-H460 > 100 µM | M14 > 100 µM | MOLT-4 52 µM | SNB-75 > 100 µM | IGROV-1 > 100 µM | NCI-H522 > 100 µM | TK-10 > 100 µM | SK-MEL-5 46.5 µM | HCC 2998 > 10 µM | K562 46.2 µM | HT-29 55.2 µM | SW-620 > 100 µM | SK-OV-3 > 100 µM | OVCAR-3 72.6 µM | LOX IMVI > 100 µM | SN12C > 100 µM

CCC1=CCN(c2ccc(C)cc2)OC1c1ccc(OC)cc1 (stereo unspecified)
inactive: OVCAR-4 92.7 µM | NCI-H460 > 100 µM | M14 52.6 µM | MOLT-4 > 100 µM | SNB-75 > 100 µM | IGROV-1 > 100 µM | CAKI-1 94.8 µM | OVCAR-5 > 100 µM | NCI-H522 23.6 µM | TK-10 > 100 µM | HCC 2998 70.5 µM | K562 94.8 µM | HT-29 33.8 µM | SW-620 > 100 µM | SK-OV-3 > 100 µM | OVCAR-3 > 100 µM | LOX IMVI > 100 µM | SN12C > 100 µM

CCOC(=O)/C(=C/c1ccc[nH]1)P(=O)(OCC)OCC
inactive: OVCAR-4 > 100 µM | NCI-H460 > 100 µM | M14 > 100 µM | MOLT-4 > 100 µM | SNB-75 77.6 µM | CAKI-1 > 100 µM | OVCAR-5 > 100 µM | NCI-H522 > 100 µM | TK-10 > 100 µM | SK-MEL-5 > 100 µM | HCC 2998 > 100 µM | K562 > 100 µM | HT-29 > 100 µM | SW-620 > 100 µM | SK-OV-3 > 100 µM | OVCAR-3 > 100 µM | LOX IMVI > 100 µM | SN12C > 100 µM

Cc1ccc(S(=O)(=O)NC(=O)NC(CCCCNC(=N)N)C(=O)O)cc1 (stereo unspecified)
inactive: OVCAR-4 > 100 µM | NCI-H460 > 100 µM | M14 > 100 µM | MOLT-4 > 100 µM | SNB-75 > 100 µM | IGROV-1 > 100 µM | NCI-H522 > 100 µM | TK-10 > 100 µM | SK-MEL-5 > 100 µM | K562 > 100 µM | SW-620 > 100 µM | SK-OV-3 > 100 µM | LOX IMVI > 100 µM | SN12C > 100 µM

CN1CN(c2ccccc2)C2(CCN(CCCC(=O)c3cccs3)CC2)C1=O
inactive: M14 95.5 µM | MOLT-4 32.8 µM | SNB-75 > 100 µM | IGROV-1 41.3 µM | CAKI-1 33.1 µM | OVCAR-5 35.9 µM | NCI-H522 > 100 µM | TK-10 27.7 µM | SK-MEL-5 22.9 µM | HCC 2998 19.5 µM | K562 38.5 µM | HT-29 21.2 µM | SW-620 42.2 µM | SK-OV-3 38.4 µM | OVCAR-3 37.2 µM | LOX IMVI 47.1 µM | SN12C 48.4 µM

CCCc1cc(=O)oc2c3c(c4c(c12)OC(C)(C)CC4)O[C@@H](C)[C@H](C)[C@H]3O
inactive: OVCAR-4 10.1 µM | NCI-H460 8.49 µM | M14 11.8 µM | MOLT-4 3.85 µM | SNB-75 10.3 µM | IGROV-1 16.1 µM | CAKI-1 35.1 µM | OVCAR-5 12.7 µM | SK-MEL-5 6.7 µM | HCC 2998 13.6 µM | K562 2.79 µM | HT-29 8.3 µM | SW-620 15 µM | SK-OV-3 17.6 µM | OVCAR-3 15.7 µM | LOX IMVI 15.4 µM | SN12C 4.22 µM

CC1(c2nc3ccccc3[nH]2)CCC(C#N)C(C)(C)O1 (stereo unspecified)
inactive: OVCAR-4 > 100 µM | M14 > 100 µM | MOLT-4 > 100 µM | SNB-75 > 100 µM | IGROV-1 > 100 µM | CAKI-1 > 100 µM | OVCAR-5 > 100 µM | NCI-H522 > 100 µM | TK-10 > 100 µM | SK-MEL-5 > 100 µM | HCC 2998 > 100 µM | K562 > 100 µM | HT-29 > 100 µM | SW-620 > 100 µM | SK-OV-3 > 100 µM | OVCAR-3 > 100 µM | LOX IMVI > 100 µM | SN12C > 100 µM

COC(=O)[C@H](Cc1ccc(O)cc1)NC(=O)[C@H](Cc1ccc(O)cc1)NC(=O)OC(C)(C)C (Boc-Tyr-Tyr-OMe)
inactive: NCI-H460 > 100 µM | M14 > 100 µM | SNB-75 > 100 µM | IGROV-1 56.6 µM | CAKI-1 > 100 µM | OVCAR-5 > 100 µM | NCI-H522 28 µM | TK-10 > 100 µM | SK-MEL-5 38 µM | HCC 2998 39.4 µM | HT-29 > 100 µM | SK-OV-3 > 100 µM | OVCAR-3 72.3 µM | LOX IMVI > 100 µM

C=C1C(=O)O[C@@H]2C[C@@]3(C)[C@H](O)CCC(=C)[C@@H]3C[C@H]12 [ASPERILIN]
inactive: OVCAR-4 11.8 µM | NCI-H460 6.14 µM | M14 3.31 µM | SNB-75 3.69 µM | IGROV-1 20.5 µM | CAKI-1 5.58 µM | OVCAR-5 6.12 µM | NCI-H522 4.16 µM | TK-10 12.5 µM | SK-MEL-5 4.26 µM | HCC 2998 7.05 µM | K562 2.39 µM | HT-29 3.6 µM | SW-620 3.44 µM | SK-OV-3 22.3 µM | OVCAR-3 8.15 µM | LOX IMVI 5.27 µM | SN12C 5.94 µM

Oc1cc(O)c2c(c1)O[C@H](c1ccc(O)c(O)c1)[C@@H](O)C2 [CIANIDANOL]
inactive: OVCAR-4 > 100 µM | NCI-H460 > 100 µM | M14 > 100 µM | MOLT-4 > 100 µM | SNB-75 > 100 µM | IGROV-1 > 100 µM | CAKI-1 > 100 µM | OVCAR-5 > 100 µM | NCI-H522 > 100 µM | TK-10 > 100 µM | SK-MEL-5 > 100 µM | HCC 2998 > 100 µM | K562 > 100 µM | HT-29 > 100 µM | SW-620 > 100 µM | OVCAR-3 > 100 µM | LOX IMVI > 100 µM | SN12C > 100 µM
